Source: BindingDB's records for doi:10.1016/j.bmcl.2012.06.057 (Sanofi-Aventis Deutschland, 2012)

Legend:
[1] = Antagonist activity at LPA5 receptor in human isolated platelets assessed as inhibition of hexadecyl-LPA-induced platelet aggregation after 3 mins
[2] = Antagonist activity at LPA2 receptor in human isolated platelets assessed as inhibition of TRAP-induced platelet aggregation after 3 mins

IC50 [1] [µM] | IC50 [2] [µM] | Structure (SMILES)
> 30 | – | Cc1csc2c(N[C@@H](C)CN3CCN(S(=O)(=O)c4ccc(Cl)c(Cl)c4)CC3)ncnc12
2.2 | > 10 | COc1cccc(-n2nc(C(=O)O)cc2-c2ccc(C3CCCCC3)c(Cl)c2)c1
> 30 | – | Cc1noc(-c2ccc(CSCCC(=O)O)cc2)c1NC(=O)OC(C)c1ccccc1Cl (centres undefined) [3-(4-(4-((1-(2-chlorophenyl)ethoxy)carbonylamino)-3-methylisoxazol-5-yl)benzylthio)propanoic acid]
